Measured values published in PubChem BioAssay (NCI).
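Following 48 hours of exposure in 96-well plates, responses at five concentrations were used to interpolate endpoints linearly. Definition used: TGI = concentration required for complete inhibition of growth.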

Key:
Assay in all cases: DTP human tumour cell line panel, 48 h
[1] = system: 786-0 renal
[2] = system: A498 renal
[3] = system: A549 NSCLC
[4] = system: ACHN renal
[5] = system: BT-549 breast
[6] = system: CAKI-1 renal
[7] = system: CCRF-CEM leukemia
[8] = system: COLO 205 colon
[9] = system: DU-145 prostate
[10] = system: EKVX NSCLC
[11] = system: HCC-2998 colon
[12] = system: HCT-116 colon
[13] = system: HCT-15 colon
[14] = system: HL-60(TB) leukemia
[15] = system: HOP-62 NSCLC
[16] = system: HS 578T breast
[17] = system: HT29 colon
[18] = system: IGROV1 ovarian
[19] = system: K-562 leukemia
[20] = system: KM12 colon
[21] = system: LOX IMVI melanoma
[22] = system: M14 melanoma
[23] = system: MALME-3M melanoma
[24] = system: MCF7 breast
[25] = system: MDA-MB-231 breast
[26] = system: MDA-MB-435
[27] = system: MDA-N
[28] = system: MOLT-4 leukemia
[29] = system: NCI-H226 lung
[30] = system: NCI-H23 lung
[31] = system: NCI-H460 lung
[32] = system: NCI-H522 lung
[33] = system: NCI/ADR-RES ovarian
[34] = system: OVCAR-3 ovarian
[35] = system: OVCAR-4 ovarian
[36] = system: OVCAR-5 ovarian
[37] = system: OVCAR-8 ovarian
[38] = system: PC-3 prostate
[39] = system: RPMI-8226 leukemia
[40] = system: SF-268 CNS
[41] = system: SF-295 CNS
[42] = system: SF-539 CNS
[43] = system: SK-MEL-2 melanoma
[44] = system: SK-MEL-28 melanoma
[45] = system: SK-MEL-5 melanoma
[46] = system: SK-OV-3 ovarian
[47] = system: SN12C renal
[48] = system: SNB-19 CNS
[49] = system: SNB-75 CNS
[50] = system: SR leukemia
[51] = system: SW-620 colon
[52] = system: T-47D breast
[53] = system: TK-10 renal
[54] = system: U251 CNS
[55] = system: UACC-257 melanoma
[56] = system: UACC-62 melanoma
[57] = system: UO-31 renal
[58] = system: HOP-92 NSCLC
[59] = system: RXF 393 renal

Measured: TGI

N#C/C(N)=C(\C#N)N=CNc1ccc(N)cc1
not listed: [58] | [59]
> 100 µM: all other assays above

NC(Cc1ncccn1)C(=O)O (centres undefined)
not listed: [14]
> 100 µM: all other assays above

Cc1ccc2[nH]c3[nH]c(=S)[nH]c(=O)c3c2c1
not listed: [31] | [35] | [38] | [44] | [54]
> 100 µM: all other assays above
